The OligoGym collection
Values joined by “and” are separate entries in the source; they are usually repeats but may differ in a detail not shown here. Equal entries are not always repeated. After the bases stand the sugars from the 5' end (letter, count) and the backbone: PS all phosphorothioate, else s phosphorothioate and o phosphodiester by linkage. Methylation of C is not given here. e = 2'-O-(2-methoxyethyl) (MOE); k = constrained ethyl (cEt); d = 2'-deoxy (DNA)

Biological target: SOD1
Conditions: ASO

Question: “CAGGATAACAGATGAGT (sugars e3 k2 d7 k2 e3, PS)” was tested. Which target mRNA inhibition (HepG2, 0.1875 µM) did it give?
Answer: 45%

Question: What about the target mRNA inhibition (HepG2, 0.75 µM) of the same sequence?
Answer: 72%

Question: What about the target mRNA inhibition (HepG2, 3 µM) of the same sequence?
Answer: 65% and 86%

Question: And the target mRNA inhibition (HepG2, 12 µM)?
Answer: 92%

Question: For “CAGGCCTTCAGTCAGTCCTT (sugars e5 d10 e5, PS)”, which target mRNA inhibition (HepG2, 5 µM) is on record?
Answer: 56% and 51%

Question: How did the target mRNA inhibition (HepG2, 3 µM) turn out when “CAGGTCATTGAAACAGA (sugars e3 k2 d7 k2 e3, PS)” was run?
Answer: 14%

Question: How did the target mRNA inhibition (A431, 0.12 µM) turn out when “CAGTGTTTAATGTTTA (sugars ekddddddddekekee, linkages s1 o1 s8 o3 s2)” was run?
Answer: 8%

Question: What about the target mRNA inhibition (A431, 0.6 µM) of the same sequence?
Answer: 26%

Question: And the target mRNA inhibition (A431, 3 µM)?
Answer: 57%

Question: What about the target mRNA inhibition (A431, 15 µM) of the same sequence?
Answer: 76%

Question: What about the target mRNA inhibition (HepG2, 0.222 µM) of the same sequence?
Answer: 54%

Question: And the target mRNA inhibition (HepG2, 0.667 µM)?
Answer: 79%

Question: And the target mRNA inhibition (HepG2, 2 µM)?
Answer: 84%

Question: And the target mRNA inhibition (HepG2, 6 µM)?
Answer: 88%

Question: How did the target mRNA inhibition (HepG2, 3 µM) turn out when “CAGTGTTTAATGTTTAT (sugars e3 k2 d7 k2 e3, PS)” was run?
Answer: 54%

Question: What does the source list for “CAGTGTTTAATGTTTATC (sugars e5 d8 e5, linkages s1 o3 s9 o2 s2)”?
Answer: target mRNA inhibition (A431, 0.12 µM): 0%; target mRNA inhibition (A431, 0.6 µM): 8%; target mRNA inhibition (A431, 3 µM): 39%; target mRNA inhibition (A431, 15 µM): 52%; target mRNA inhibition (HepG2, 0.222 µM): 21%; target mRNA inhibition (HepG2, 0.667 µM): 47%; target mRNA inhibition (HepG2, 2 µM): 64%; target mRNA inhibition (HepG2, 6 µM): 84%

Question: How did the target mRNA inhibition (HepG2, 5 µM) turn out when “CAGTTTCTCACTACAGG (sugars e2 k2 d9 k2 e2, PS)” was run?
Answer: 38%

Question: Which target mRNA inhibition (HepG2, 3 µM) does the source give for “CATACAGGGTTTTTATT (sugars e3 k2 d7 k2 e3, PS)” here?
Answer: 0%

Question: For “CATCCTTTGGCCCACCG (sugars e3 k2 d7 k2 e3, PS)”, which target mRNA inhibition (HepG2, 3 µM) is on record?
Answer: 38%

Question: For “CATGCCTCTCTTCATCC (sugars e3 k2 d7 k2 e3, PS)”, which target mRNA inhibition (HepG2, 3 µM) is on record?
Answer: 14%

Question: For “CATTGCCCAAGTCTCCAACA (sugars e5 d10 e5, PS)”, which target mRNA inhibition (HepG2, 5 µM) is on record?
Answer: 39% and 25%

Question: For “CATTTCTACAGCTAGC (sugars ekddddddddekekee, linkages s1 o1 s8 o3 s2)”, which target mRNA inhibition (A431, 0.12 µM) is on record?
Answer: 3%

Question: What about the target mRNA inhibition (A431, 0.6 µM) of the same sequence?
Answer: 3%

Question: What about the target mRNA inhibition (A431, 3 µM) of the same sequence?
Answer: 2%

Question: And the target mRNA inhibition (A431, 15 µM)?
Answer: 11%

Question: Which target mRNA inhibition (HepG2, 4 µM) does the source give for “CCAAGGGAATGTTTATT (sugars e2 k2 d8 k2 e3, PS)” here?
Answer: 57%

Question: How did the target mRNA inhibition (HepG2, 3 µM) turn out when “CCAAGGGAATGTTTATT (sugars e3 k2 d7 k2 e3, PS)” was run?
Answer: 36%

Question: Which target mRNA inhibition (HepG2, 5 µM) does the source give for “CCAAGTGATCATAAATC (sugars e2 k2 d8 k2 e3, PS)” here?
Answer: 40%

Question: Which target mRNA inhibition (HepG2, 3 µM) does the source give for “CCAATTACACCACAAGC (sugars e3 k2 d7 k2 e3, PS)” here?
Answer: 29%

Question: With “CCACACCATCTTTGTCAGCA (sugars e5 d10 e5, PS)” as the sequence, how does the target mRNA inhibition (HepG2, 5 µM) read?
Answer: 39% and 20%

Question: With “CCACACCTTCACTGGTCCAT (sugars e5 d10 e5, PS)” as the sequence, how does the target mRNA inhibition (HepG2, 2 µM) read?
Answer: 50%

Question: “CCACTCTGGCCCCAAAC (sugars e3 k2 d7 k2 e3, PS)” was tested. Which target mRNA inhibition (HepG2, 3 µM) did it give?
Answer: 17%

Question: How did the target mRNA inhibition (HepG2, 4 µM) turn out when “CCAGACCTCCGCGCCTCGCC (sugars e5 d10 e5, PS)” was run?
Answer: 46%

Question: With “CCATGCAGGCCTTCAGT (sugars e3 k2 d7 k2 e3, PS)” as the sequence, how does the target mRNA inhibition (HepG2, 3 µM) read?
Answer: 21%

Question: “CCCAATTACACCACAAG (sugars e2 k2 d8 k2 e3, PS)” was tested. Which target mRNA inhibition (HepG2, 4 µM) did it give?
Answer: 63%

Question: With “CCCATCTGTGATTTAAGTCT (sugars e5 d10 e5, PS)” as the sequence, how does the target mRNA inhibition (HepG2, 5 µM) read?
Answer: 41%

Question: “CCCCGTCTCCGCGACTACTT (sugars e5 d10 e5, PS)” was tested. Which target mRNA inhibition (HepG2, 4 µM) did it give?
Answer: 16%

Question: With “CCCTTCAGCACGCACAC (sugars e2 k2 d8 k2 e3, PS)” as the sequence, how does the target mRNA inhibition (HepG2, 0.1875 µM) read?
Answer: 25%

Question: What about the target mRNA inhibition (HepG2, 0.75 µM) of the same sequence?
Answer: 22%

Question: What about the target mRNA inhibition (HepG2, 2 µM) of the same sequence?
Answer: 50%

Question: What about the target mRNA inhibition (HepG2, 3 µM) of the same sequence?
Answer: 72%

Question: And the target mRNA inhibition (HepG2, 4 µM)?
Answer: 74%

Question: What about the target mRNA inhibition (HepG2, 12 µM) of the same sequence?
Answer: 79%

Question: How did the target mRNA inhibition (HepG2, 4 µM) turn out when “CCGCGCCTCGCCCACTCTGG (sugars e5 d10 e5, PS)” was run?
Answer: 27%

Question: Which results are given for “CCGTCGCCCTTCAGCAC (sugars e2 k2 d9 k2 e2, PS)”?
Answer: target mRNA inhibition (HepG2, 0.1875 µM): 24%; target mRNA inhibition (HepG2, 0.75 µM): 42%; target mRNA inhibition (HepG2, 3 µM): 80%; target mRNA inhibition (HepG2, 4 µM): 75%; target mRNA inhibition (HepG2, 12 µM): 94%

Question: Which target mRNA inhibition (HepG2, 3 µM) does the source give for “CCGTCGCCCTTCAGCAC (sugars e3 k2 d7 k2 e3, PS)” here?
Answer: 27%

Question: What does the source list for “CCGTCGCCCTTCAGCACGCA (sugars e5 d8 e7, linkages s1 o3 s10 o3 s2)”?
Answer: target mRNA inhibition (A431, 0.062 µM): 8%; target mRNA inhibition (A431, 0.185 µM): 4%; target mRNA inhibition (A431, 0.556 µM): 5%; target mRNA inhibition (A431, 1.667 µM): 4%; target mRNA inhibition (A431, 5 µM): 9%; target mRNA inhibition (A431, 15 µM): 3%; target mRNA inhibition (SH-SY5Y, 0.062 µM): 11%; target mRNA inhibition (SH-SY5Y, 0.185 µM): 15%; target mRNA inhibition (SH-SY5Y, 0.556 µM): 9%; target mRNA inhibition (SH-SY5Y, 1.667 µM): 30%; target mRNA inhibition (SH-SY5Y, 5 µM): 59%; target mRNA inhibition (SH-SY5Y, 15 µM): 76%

Question: For “CCTCAGACTACATCCAA (sugars e2 k2 d9 k2 e2, PS)”, which target mRNA inhibition (HepG2, 0.1875 µM) is on record?
Answer: 11%

Question: What about the target mRNA inhibition (HepG2, 0.75 µM) of the same sequence?
Answer: 67%

Question: What about the target mRNA inhibition (HepG2, 3 µM) of the same sequence?
Answer: 89%

Question: And the target mRNA inhibition (HepG2, 4 µM)?
Answer: 87%

Question: And the target mRNA inhibition (HepG2, 12 µM)?
Answer: 94%

Question: How did the target mRNA inhibition (HepG2, 5 µM) turn out when “CCTCATAATAAGTGCCA (sugars e2 k2 d9 k2 e2, PS)” was run?
Answer: 31%

Question: With “CCTGCACTGGTACAGCC (sugars e3 k2 d7 k2 e3, PS)” as the sequence, how does the target mRNA inhibition (HepG2, 3 µM) read?
Answer: 17%

Question: For “CCTTCTGCTCGAAATTG (sugars e3 k2 d7 k2 e3, PS)”, which target mRNA inhibition (HepG2, 3 µM) is on record?
Answer: 16%

Question: “CCTTTGGCCCACCGTGT (sugars e3 k2 d7 k2 e3, PS)” was tested. Which target mRNA inhibition (HepG2, 3 µM) did it give?
Answer: 46%

Question: “CGATCCCAATTACACCA (sugars e2 k2 d9 k2 e2, PS)” was tested. Which target mRNA inhibition (HepG2, 4 µM) did it give?
Answer: 59%
